Assay results taken from patent US6914045B2, “Glycopeptide antibiotics” (Wyeth Holdings Corporation, priority 2001, dated 2005).

Legend:
Assay in all cases: in vitro antibacterial evaluation, MIC by broth dilution
Type in all cases: cell-based
Escherichia coli = details: 18 hours at 35° C.
Experimental: (§1) The minimum inhibitory concentration (MIC), the lowest concentration of the antibiotic which inhibits growth of the test organism, is determined by the broth dilution method using Muller-Hinton II […] (Baltimore Biological Laboratories) following the recommendations of the National Committee for Clinical Laboratory Standards [Methods for dilution antimicrobial susceptibility tests for bacteria that grow aerobically, approved standard M7-A2, National Committee for Clinical Laboratory Standards, Villanova, Pa.].
(§2) An inoculum level of 5×10^5 CFU/mL, and a range of antibiotic concentrations (64-0.06 μg/mL) is used. […] The test organisms include a spectrum of Gram-positive bacteria comprised of Staphylococcus sp., Streptococcus sp. and Enterococcus sp. These organisms include recent clinical isolates that are resistant to methicillin, penicillin and/or vancomycin.

Staphylococcus sp. = details: broth dilution, 18 hours at 35° C.; for MIC Staphylococcus aureus (ATCC 29213): strain ATCC 29213; for MIC Staphylococcus aureus (GC 1131): strain GC 1131; for MIC Staphylococcus aureus (GC 4541): strain GC 4541; for MIC Staphylococcus aureus (GC 4542): strain GC 4542; for MIC Staphylococcus aureus (GC 4544): strain GC 4544; for MIC Staphylococcus aureus (GC 4545): strain GC 4545
Experimental: (§3) Methods for in vitro Antibacterial Evaluation (Table 1)
as §1, §2

Enterococcus sp. = details: broth dilution, 18 hours at 35° C.
Experimental: as §3, §1, §2

Streptococcus sp. = details: broth dilution, 18 hours at 35° C.
Experimental: as §3, §1, §2

CC(c1ccccc1)C1NC(=O)CNC(=O)C(CO)NC(=O)C(C(O)C2CNC(=N)N2C2OC(CO)C(O)C(O)C2O)NC(=O)C(C(O)C2CNC(=N)N2)NC(=O)C(Cc2ccc(OC3OC(COC(=O)C(c4ccccc4)c4ccccc4)C(OC4OC(CO)C(O)C(O)C4O)C(O)C3O)cc2)NC1=O (stereo not drawn) [Example 96b, Cyclo[glycyl-β-methylphenylalanyl-O-[6-O-(diphenylacetyl)-4-O-hexopyranosylhexopyranosyl]tyrosyl-3-(2-iminoimidazolidin-4-yl)seryl-3-(3-hexopyranosyl-2-iminoimidazolidin-4-yl)serylseryl]]
8 mg/L: MIC Enterococcus faecalis (ATCC 29212) (Enterococcus sp.; Enterococcus faecalis (ATCC 29212)) | MIC Enterococcus faecalis (GC 4552) (Enterococcus sp.; Enterococcus faecalis (GC 4552)) | MIC Enterococcus faecalis (GC 4553) (Enterococcus sp.; Enterococcus faecalis (GC 4553)) | MIC Enterococcus faecalis (GC 4554) (Enterococcus sp.; Enterococcus faecalis (GC 4554)) | MIC Enterococcus faecium (GC 2243) (Enterococcus sp.; Enterococcus faecium (GC 2243)) | MIC Enterococcus faecium (GC 4556) (Enterococcus sp.; Enterococcus faecium (GC 4556)) | MIC Enterococcus faecalis (ATCC 29212) (Enterococcus sp.) | MIC Enterococcus faecalis (GC 4552) (Enterococcus sp.) | MIC Enterococcus faecalis (GC 4553) (Enterococcus sp.) | MIC Enterococcus faecalis (GC 4554) (Enterococcus sp.) | MIC Enterococcus faecium (GC 2243) (Enterococcus sp.) | MIC Enterococcus faecium (GC 4556) (Enterococcus sp.)
2 mg/L: MIC Coagulase Negative Staphylococcus (GC 4551) (Staphylococcus sp.) | MIC Staphylococcus aureus-SMITH (GC 4543) (Staphylococcus sp.) | MIC Coagulase Negative Staphylococcus (GC 4551) (Staphylococcus sp.; strain GC 4551) | MIC Staphylococcus aureus-SMITH (GC 4543) (Staphylococcus sp.; strain SMITH GC 4543) | MIC Staphylococcus aureus (GC 1131) (Staphylococcus sp.) | MIC Staphylococcus aureus (GC 4542) (Staphylococcus sp.) | MIC Staphylococcus aureus (GC 4544) (Staphylococcus sp.)
<0.12 mg/L: MIC Streptococcus pneumoniae (GC 4565) (Streptococcus sp.; Streptococcus pneumoniae (GC 4565)) | MIC Streptococcus pneumoniae (GC 4565) (Streptococcus sp.)
0.5 mg/L: MIC Coagulase Negative Staphylococcus (GC 4548) (Staphylococcus sp.) | MIC Coagulase Negative Staphylococcus (GC 4549) (Staphylococcus sp.) | MIC Coagulase Negative Staphylococcus (ID-3941) (Staphylococcus sp.) | MIC Coagulase Negative Staphylococcus (GC 4548) (Staphylococcus sp.; strain GC 4548) | MIC Coagulase Negative Staphylococcus (GC 4549) (Staphylococcus sp.; strain GC 4549) | MIC Coagulase Negative Staphylococcus (ID-3941) (Staphylococcus sp.; strain ID-3941)
4 mg/L: MIC Enterococcus avium (GC 4558) (Enterococcus sp.; Enterococcus avium (GC 4558)) | MIC Enterococcus faecalis (GC 2242) (Enterococcus sp.; Enterococcus faecalis (GC 2242)) | MIC Enterococcus avium (GC 4558) (Enterococcus sp.) | MIC Enterococcus faecalis (GC 2242) (Enterococcus sp.)
0.25 mg/L: MIC Streptococcus agalactiae (GC 4564) (Streptococcus sp.; Streptococcus agalactiae (GC 4564)) | MIC Streptococcus pyogenes (ID-3187) (Streptococcus sp.; Streptococcus pyogenes (ID-3187)) | MIC Streptococcus agalactiae (GC 4564) (Streptococcus sp.) | MIC Streptococcus pyogenes (ID-3187) (Streptococcus sp.)
1 mg/L: MIC Coagulase Negative Staphylococcus (GC 4547) (Staphylococcus sp.) | MIC Staphylococcus haemolyticus (GC 4546) (Staphylococcus sp.) | MIC Staphylococcus haemolyticus (GC 4546) (Staphylococcus sp.; strain GC 4546) | MIC Coagulase Negative Staphylococcus (GC 4547) (Staphylococcus sp.; strain GC 4547) | MIC Staphylococcus aureus (ATCC 29213) (Staphylococcus sp.) | MIC Staphylococcus aureus (GC 4541) (Staphylococcus sp.) | MIC Staphylococcus aureus (GC 4545) (Staphylococcus sp.) | MIC Enterococcus faecium (GC 4557) (Enterococcus sp.; Enterococcus faecium (GC 4557)) | MIC Enterococcus faecium (GC 4557) (Enterococcus sp.)
>128 mg/L: MIC Escherichia coli (ATCC 25922) (Escherichia coli)

CC(c1ccccc1)C1NC(=O)CNC(=O)C(CO)NC(=O)C(C(O)C2CN(Cc3ccc(C(F)(F)F)cc3)C(=N)N2C2OC(CO)C(O)C(O)C2O)NC(=O)C(C(O)C2CNC(=N)N2)NC(=O)C(Cc2ccc(OC3OC(CO)C(OC4OC5COC6(OC5C(O)C4O)C4CC5CC(C4)CC6C5)C(O)C3O)cc2)NC1=O (centres unmarked) [Example 226]
128 mg/L: MIC Escherichia coli (GC 4559) (Escherichia coli)
>128 mg/L: MIC Escherichia coli (ATCC 25922) (Escherichia coli)
32 mg/L: MIC Enterococcus faecalis (ATCC 29212) (Enterococcus sp.) | MIC Enterococcus faecalis (GC 2691) (Enterococcus sp.) | MIC Enterococcus faecalis (GC 3059) (Enterococcus sp.) | MIC Enterococcus faecalis (GC 4552) (Enterococcus sp.) | MIC Enterococcus faecalis (GC 4554) (Enterococcus sp.) | MIC Enterococcus faecalis (GC 6189) (Enterococcus sp.) | MIC Enterococcus faecium (GC 4556) (Enterococcus sp.) | MIC Enterococcus faecalis (ATCC 29212) (Enterococcus sp.; inoculum 5×10^5 CFU/mL, strain ATCC 29212) | MIC Enterococcus faecalis (GC 2691) (Enterococcus sp.; inoculum 5×10^5 CFU/mL, strain GC 2691) | MIC Enterococcus faecalis (GC 3059) (Enterococcus sp.; inoculum 5×10^5 CFU/mL, strain GC 3059) | MIC Enterococcus faecalis (GC 4552) (Enterococcus sp.; inoculum 5×10^5 CFU/mL, strain GC 4552) | MIC Enterococcus faecalis (GC 4554) (Enterococcus sp.; inoculum 5×10^5 CFU/mL, strain GC 4554) | MIC Enterococcus faecium (GC 4556) (Enterococcus sp.; inoculum 5×10^5 CFU/mL, strain GC 4556) | MIC Enterococcus faecalis (GC 6189) (Enterococcus sp.; inoculum 5×10^5 CFU/mL, strain GC 6189)
2 mg/L: MIC Coagulase Negative Staphylococcus (GC 6257) (Staphylococcus sp.) | MIC Coagulase Negative Staphylococcus (GC 6257) (Staphylococcus sp.; strain GC 6257) | MIC Enterococcus faecium (GC 4557) (Enterococcus sp.) | MIC Enterococcus faecium (GC 4557) (Enterococcus sp.; inoculum 5×10^5 CFU/mL, strain GC 4557) | MIC Streptococcus pyogenes (GC 4563) (Streptococcus sp.) | MIC Streptococcus pyogenes (GC 4563) (Streptococcus sp.; inoculum 5×10^5 CFU/mL, strain GC 4563)
8 mg/L: MIC Coagulase Negative Staphylococcus (GC 4547) (Staphylococcus sp.) | MIC Coagulase Negative Staphylococcus (GC 4548) (Staphylococcus sp.) | MIC Coagulase Negative Staphylococcus (GC 4551) (Staphylococcus sp.) | MIC Staphylococcus aureus-SMITH (GC 4543) (Staphylococcus sp.) | MIC Staphylococcus haemolyticus (GC 4546) (Staphylococcus sp.) | MIC Staphylococcus aureus-SMITH (GC 4543) (Staphylococcus sp.; strain GC 4543) | MIC Staphylococcus haemolyticus (GC 4546) (Staphylococcus sp.; strain GC 4546) | MIC Coagulase Negative Staphylococcus (GC 4547) (Staphylococcus sp.; strain GC 4547) | MIC Coagulase Negative Staphylococcus (GC 4548) (Staphylococcus sp.; strain GC 4548) | MIC Coagulase Negative Staphylococcus (GC 4551) (Staphylococcus sp.; strain GC 4551) | MIC Staphylococcus aureus (GC 4541) (Staphylococcus sp.) | MIC Enterococcus avium (GC 4558) (Enterococcus sp.) | MIC Enterococcus avium (GC 4558) (Enterococcus sp.; inoculum 5×10^5 CFU/mL, strain GC 4558)
4 mg/L: MIC Escherichia coli (GC 4560) (Escherichia coli) | MIC Streptococcus agalactiae (GC 4564) (Streptococcus sp.) | MIC Streptococcus pneumoniae (ATCC 6301) (Streptococcus sp.) | MIC Streptococcus pneumoniae (GC 4565) (Streptococcus sp.) | MIC Streptococcus pneumoniae (ATCC 6301) (Streptococcus sp.; inoculum 5×10^5 CFU/mL, strain ATCC 6301) | MIC Streptococcus agalactiae (GC 4564) (Streptococcus sp.; inoculum 5×10^5 CFU/mL, strain GC 4564) | MIC Streptococcus pneumoniae (GC 4565) (Streptococcus sp.; inoculum 5×10^5 CFU/mL, strain GC 4565)
16 mg/L: MIC Coagulase Negative Staphylococcus (GC 4549) (Staphylococcus sp.) | MIC Coagulase Negative Staphylococcus (GC 4549) (Staphylococcus sp.; strain GC 4549) | MIC Staphylococcus aureus (ATCC 29213) (Staphylococcus sp.) | MIC Staphylococcus aureus (GC 1131) (Staphylococcus sp.) | MIC Staphylococcus aureus (GC 3051) (Staphylococcus sp.; strain GC 3051) | MIC Staphylococcus aureus (GC 3053) (Staphylococcus sp.; strain GC 3053) | MIC Staphylococcus aureus (GC 4542) (Staphylococcus sp.) | MIC Staphylococcus aureus (GC 4544) (Staphylococcus sp.) | MIC Staphylococcus aureus (GC 4545) (Staphylococcus sp.) | MIC Enterococcus faecalis (GC 2242) (Enterococcus sp.) | MIC Enterococcus faecalis (GC 4553) (Enterococcus sp.) | MIC Enterococcus faecium (GC 2243) (Enterococcus sp.) | MIC Enterococcus faecalis (GC 2242) (Enterococcus sp.; inoculum 5×10^5 CFU/mL, strain GC 2242) | MIC Enterococcus faecium (GC 2243) (Enterococcus sp.; inoculum 5×10^5 CFU/mL, strain GC 2243) | MIC Enterococcus faecalis (GC 4553) (Enterococcus sp.; inoculum 5×10^5 CFU/mL, strain GC 4553)
0.5 mg/L: MIC Streptococcus pneumoniae (GC 1894) (Streptococcus sp.) | MIC Streptococcus pneumoniae (GC 1894) (Streptococcus sp.; inoculum 5×10^5 CFU/mL, strain GC 1894)
